Experiments:
Aspergillus brasiliensis = details: when used in cosmetics; Daily Chemical Industry 2015, 45:269; cited from earlier work
Pseudomonas aeruginosa = details: when used in cosmetics; Daily Chemical Industry 2015, 45:269; cited from earlier work
[1] = General properties: behaviour when put into water; assay type: physicochemical; details: solid put into water in a beaker
[2] = Solubility test d): 4-HAP + 3 wt. % 1,2-pentanediol (Hydrolite 5) + 5 wt. % glycerin in warm water; assay type: physicochemical; details: for dissolution result: heating up to 50° C. and cooling down while stirring; for crystals on storage: stored at 5° C. and room temperature, after 24 h
[3] = Solubility test e): 4-HAP + 5 wt. % 1,2-pentanediol (Hydrolite 5) in cold water; assay type: physicochemical; details: for dissolution result: after ca. 50 min
[4] = Solubility test c): 4-HAP + 3 wt. % 1,2-pentanediol (Hydrolite 5) + 5 wt. % glycerin in cold water; assay type: physicochemical
[5] = 0.5 wt. % 4-HAP + 3 wt. % 1,2-pentanediol + 5 wt. % glycerin
[6] = 1 wt. % 4-HAP + 3 wt. % 1,2-pentanediol + 5 wt. % glycerin
[7] = 0.5 wt. % 4-HAP + 5 wt. % 1,2-pentanediol
[8] = 1 wt. % 4-HAP + 5 wt. % 1,2-pentanediol

| Structure (SMILES) | ability to kill Aspergillus brasiliensis (Aspergillus brasiliensis) | ability to restrain Pseudomonas aeruginosa (Pseudomonas aeruginosa) | behaviour when put into water [1] | dissolution result [2, 5] | crystals on storage [2, 5] | dissolution result [2, 6] | crystals on storage [2, 6] | time until solved completely [3, 7] | crystallization/precipitation on storage ([3]; 0.5 wt. % 4-HAP + 5 wt. % 1,2-pentanediol, after 24 h of storage) | time until solved completely [3, 8] | storage time after which crystallization ([3]; 1 wt. % 4-HAP + 5 wt. % 1,2-pentanediol, stored at 5° C.) | storage time after which crystallization/precipitation [4, 5] | time until solved completely [4, 5] | time until solved completely [4, 6] | crystallization/precipitation on storage ([4]; 1 wt. % 4-HAP + 3 wt. % 1,2-pentanediol + 5 wt. % glycerin, after 24 h of storage) | dissolution result [3, 7] | dissolution result [3, 8] | dissolution result ([4]; 1 wt. % 4-HAP + 3 wt. % 1,2-pentanediol + 5 wt. % glycerin, after stirring for 60 min) |
| --- | --- | --- | --- | --- | --- | --- | --- | --- | --- | --- | --- | --- | --- | --- | --- | --- | --- | --- |
| CC(=O)c1ccc(O)cc1 [4-hydroxyacetophenone] | great ability to kill | certain ability to restrain | – | – | – | – | – | – | – | – | – | – | – | – | – | – | – | – |
| CC(=O)c1ccc(O)cc1 [Example 3, 4-hydroxyacetophenone] | – | – | distributes on the surface and slowly falls to the ground of the beaker | solved completely | no crystals | solved completely | no crystals | ca. 50 min | no crystallization/precipitation | ca. 50 min | 24 h | 48 h | ca. 50 min | ca. 50 min | no crystallization/precipitation | – | – | – |
| CC(=O)c1ccc(O)cc1 [Example 4, 4-hydroxyacetophenone] | – | – | agglomerates and sinks to the ground | solved completely | no crystals | solved completely | no crystals | – | – | – | – | 48 h | ca. 50 min | – | – | a few little lumps of solid left undissolved | lumps of solid left undissolved | a few lumps of solid left undissolved |

From patent publication US10981854B2 (SYMRISE AG, priority 2016, dated 2021)
